system: Plutella maculipennis; assay: Plutella test; type: in vivo, Plutella maculipennis (diamond-back moth); conditions: 72 h, active compound concentration 0.01 %, after 3d, read-out: Degree of destruction in % after 3d
Description: (§1) Solvent: 7 parts by weight of dimethylformamide
(§2) Emulsifier: 1 part by weight of alkylaryl polyglycol ether
(§3) To produce a suitable preparation of active compound, 1 part by weight of active compound is mixed with the stated amount of solvent and the stated amount of emulsifier, and the concentrate is diluted with water to the desired concentration.
Cabbage leaves (Brassica oleracea) are treated by being dipped into the preparation of active compound of the desired concentration and are infested with caterpillars of the diamond-back moth (Plutella maculipennis) while the leaves are still moist.
After the desired period of time, the destruction in % is determined. 100% means that all the caterpillars have been killed; 0% means that none of the caterpillars have been killed.

SMILES	mortality at 0.01 %
CC(C)(C)CNC(=O)OCCCN1CC([N+](=O)[O-])=C2N(Cc3ccc(Cl)nc3)CCN2C1	100%
O=C(NCCN1CC([N+](=O)[O-])=C2N(Cc3ccc(Cl)nc3)CCN2C1)OCc1ccccc1 [drawing 127]	100%
O=C(NCCCCCCCl)OCCCN1CC([N+](=O)[O-])=C2N(Cc3ccc(Cl)nc3)CCN2C1 [drawing 132]	100%

same assay, conditions: 72 h, active compound concentration 0.1 %, after 3d, read-out: Degree of destruction in % after 3d

SMILES	mortality at 0.1 %
CC(C)(C)CNC(=O)OCCCN1CC([N+](=O)[O-])=C2N(Cc3ccc(Cl)nc3)CCN2C1	100%
O=C(NCCN1CC([N+](=O)[O-])=C2N(Cc3ccc(Cl)nc3)CCN2C1)OCc1ccccc1 [drawing 127]	100%
O=C(NCCCCCCCl)OCCCN1CC([N+](=O)[O-])=C2N(Cc3ccc(Cl)nc3)CCN2C1 [drawing 132]	100%

same assay, conditions: 72 h, read-out: Degree of destruction in % after 3d

SMILES	mortality at 0.01 %	mortality at 0.1 %
CC(=O)OCCN1CC([N+](=O)[O-])=C2N(Cc3ccc(Cl)nc3)CCN2C1	100%	100%
CC(C)(C)OC(=O)NCCN1CC([N+](=O)[O-])=C2N(Cc3ccc(Cl)nc3)CCN2C1 [drawing 123]	100%	100%
CCOC(=O)NCCN1CC([N+](=O)[O-])=C2N(Cc3ccc(Cl)nc3)CCN2C1 [drawing 124]	100%	100%
CC(=O)NCCN1CC([N+](=O)[O-])=C2N(Cc3ccc(Cl)nc3)CCN2C1 [drawing 125]	100%	100%
CCOC(=O)NCCCN1CC([N+](=O)[O-])=C2N(Cc3ccc(Cl)nc3)CCN2C1 [drawing 126]	100%	100%
CNC(=O)OCCCN1CC([N+](=O)[O-])=C2N(Cc3ccc(Cl)nc3)CCN2C1 [drawing 128]	100%	100%
CC(=O)OCCCN1CC([N+](=O)[O-])=C2N(Cc3ccc(Cl)nc3)CCN2C1 [drawing 129]	100%	100%

system: Nephotettix cincticeps; assay: Nephotettix test; type: in vivo, Nephotettix cincticeps (green rice leafhopper); conditions: 144 h, active compound concentration 0.00001 %, after 6d, read-out: Degree of destruction in % after 6d
Description: as §1, §2, §3
Rice seedlings (Oryza sativa) are treated by being dipped into the preparation of active compound of the desired concentration and are infested with larvae of the green rice leafhopper (Nephotettix cincticeps) while the seedlings are still moist.
After the desired period of time, the destruction in % is determined. 100% means that all the leafhoppers have been killed; 0% means that none of the leafhoppers have been killed.

SMILES	mortality at 1e-05 %
O=[N+]([O-])C1=C2N(Cc3ccc(Cl)nc3)CCCN2CN(CCOCC(F)(F)F)C1 [drawing 134, reference compound]	0%

same assay, conditions: 144 h, active compound concentration 0.0001 %, after 6d, read-out: Degree of destruction in % after 6d

SMILES	mortality at 0.0001 %
O=[N+]([O-])C1=C2N(Cc3ccc(Cl)nc3)CCCN2CN(CCOCC(F)(F)F)C1 [drawing 134, reference compound]	60%

same assay, conditions: 144 h, active compound concentration 0.001 %, after 6d, read-out: Degree of destruction in % after 6d

SMILES	mortality at 0.001 %
O=[N+]([O-])C1=C2N(Cc3ccc(Cl)nc3)CCCN2CN(CCOCC(F)(F)F)C1 [drawing 134, reference compound]	100%

system: Myzus persicae; assay: Myzus test; type: in vivo, Myzus persicae (green peach aphid); conditions: 144 h, active compound concentration 0.001 %, after 6d, read-out: Degree of destruction in % after 6d
Description: as §1, §2, §3
Cabbage leaves (Brassica oleracea) which are severely infested with the green peach aphid (Myzus persicae) are treated by being dipped into the preparation of active compound of the desired concentration.
After the desired period of time, the destruction in % is determined. 100% means that all the aphids have been killed; 0% means that none of the aphids have been killed.

SMILES	mortality at 0.001 %
CCCCNC(=O)OCCCN1CC([N+](=O)[O-])=C2N(Cc3ccc(Cl)nc3)CCN2C1	98%
O=C(NCCCCCCCl)OCCCN1CC([N+](=O)[O-])=C2N(Cc3ccc(Cl)nc3)CCN2C1 [drawing 143]	100%

same assay, conditions: 144 h, active compound concentration 0.01 %, after 6d, read-out: Degree of destruction in % after 6d

SMILES	mortality at 0.01 %
CCCCNC(=O)OCCCN1CC([N+](=O)[O-])=C2N(Cc3ccc(Cl)nc3)CCN2C1	100%
O=C(NCCCCCCCl)OCCCN1CC([N+](=O)[O-])=C2N(Cc3ccc(Cl)nc3)CCN2C1 [drawing 143]	100%

same assay, conditions: 144 h, read-out: Degree of destruction in % after 6d

SMILES	mortality at 0.001 %	mortality at 0.01 %
O=[N+]([O-])C1=C2N(Cc3ccc(Cl)nc3)CCCN2CN(CCOCC(F)(F)F)C1 [drawing 137, reference compound]	0%	80%
CC(C)(C)OC(=O)NCCN1CC([N+](=O)[O-])=C2N(Cc3ccc(Cl)nc3)CCN2C1 [drawing 138]	100%	100%
CCOC(=O)NCCN1CC([N+](=O)[O-])=C2N(Cc3ccc(Cl)nc3)CCN2C1 [drawing 139]	95%	100%
CC(=O)NCCN1CC([N+](=O)[O-])=C2N(Cc3ccc(Cl)nc3)CCN2C1 [drawing 140]	100%	100%
CCOC(=O)NCCCN1CC([N+](=O)[O-])=C2N(Cc3ccc(Cl)nc3)CCN2C1 [drawing 141]	99%	100%

system: not listed separately; assay: lg P (physical data); conditions: not given

SMILES	logP
COCCNC(=O)OCCCN1CC([N+](=O)[O-])=C2N(Cc3ccc(Cl)nc3)CCN2C1 [Example 31]	1.11
CCOCCOCCNC(=O)OCCN1CC([N+](=O)[O-])=C2N(Cc3ccc(Cl)nc3)CCN2C1 [Example 32]	1.26
CC(COC(C)(C)C)NC(=O)OCCN1CC([N+](=O)[O-])=C2N(Cc3ccc(Cl)nc3)CCN2C1 (stereo not shown) [Example 33]	2.26
COCCOCCNC(=O)OCCCCCN1CC([N+](=O)[O-])=C2N(Cc3ccc(Cl)nc3)CCN2C1 [Example 34]	1.28
CCOCCOCCNC(=O)OCCCCCN1CC([N+](=O)[O-])=C2N(Cc3ccc(Cl)nc3)CCN2C1 [Example 35]	1.44
COCCNC(=O)OCCCCCN1CC([N+](=O)[O-])=C2N(Cc3ccc(Cl)nc3)CCN2C1 [Example 36]	1.24
O=C(Nc1ccc(S(=O)(=O)C(F)(F)F)cc1)OCCCCCN1CC([N+](=O)[O-])=C2N(Cc3ccc(Cl)nc3)CCN2C1 [Example 37]	2.29
O=C(Nc1ccccc1)OCCCCCN1CC([N+](=O)[O-])=C2N(Cc3ccc(Cl)nc3)CCN2C1 [Example 38]	1.79
CC(=O)OCCNC(=O)OCCCCCN1CC([N+](=O)[O-])=C2N(Cc3ccc(Cl)nc3)CCN2C1 [Example 39]	0.82
CC(C)(C)C(=O)OCCNC(=O)OCCCCCN1CC([N+](=O)[O-])=C2N(Cc3ccc(Cl)nc3)CCN2C1 [Example 40]	1.81
O=C(Nc1ccc(Cl)cc1)OCCCCCN1CC([N+](=O)[O-])=C2N(Cc3ccc(Cl)nc3)CCN2C1 [Example 41]	2.09
CC(C)(C)CNC(=O)OCCCCCN1CC([N+](=O)[O-])=C2N(Cc3ccc(Cl)nc3)CCN2C1 [Example 43]	2.01
O=C(Nc1ccc(SC(F)(F)F)cc1)OCCCCCN1CC([N+](=O)[O-])=C2N(Cc3ccc(Cl)nc3)CCN2C1 [Example 44]	2.74
COC(C)(C)CNC(=O)OCCCCCN1CC([N+](=O)[O-])=C2N(Cc3ccc(Cl)nc3)CCN2C1 [Example 45]	1.56
COCCOCCNC(=O)OCCCCCCN1CC([N+](=O)[O-])=C2N(Cc3ccc(Cl)nc3)CCN2C1 [Example 46]	1.47
CCOCCOCCNC(=O)OCCCCCCN1CC([N+](=O)[O-])=C2N(Cc3ccc(Cl)nc3)CCN2C1 [Example 47]	1.63
COCCNC(=O)OCCCCCCN1CC([N+](=O)[O-])=C2N(Cc3ccc(Cl)nc3)CCN2C1 [Example 48]	1.44
O=C(Nc1ccc(S(=O)(=O)C(F)(F)F)cc1)OCCCCCCN1CC([N+](=O)[O-])=C2N(Cc3ccc(Cl)nc3)CCN2C1 [Example 49]	2.51
O=C(Nc1ccccc1)OCCCCCCN1CC([N+](=O)[O-])=C2N(Cc3ccc(Cl)nc3)CCN2C1 [Example 50]	2.01
CC(=O)OCCNC(=O)OCCCCCCN1CC([N+](=O)[O-])=C2N(Cc3ccc(Cl)nc3)CCN2C1 [Example 51]	1.47

SMILES	logP
CC(C)(C)C(=O)OCCNC(=O)OCCCCCCN1CC([N+](=O)[O-])=C2N(Cc3ccc(Cl)nc3)CCN2C1 [Example 52]	1.98
O=C(Nc1ccc(Cl)cc1)OCCCCCCN1CC([N+](=O)[O-])=C2N(Cc3ccc(Cl)nc3)CCN2C1 [Example 53]	2.27
O=C(Nc1ccc(Cl)c(Cl)c1)OCCCCCCN1CC([N+](=O)[O-])=C2N(Cc3ccc(Cl)nc3)CCN2C1 [Example 54]	2.59
CC(C)(C)CNC(=O)OCCCCCCN1CC([N+](=O)[O-])=C2N(Cc3ccc(Cl)nc3)CCN2C1 [Example 55]	2.05
O=C(Nc1ccc(SC(F)(F)F)cc1)OCCCCCCN1CC([N+](=O)[O-])=C2N(Cc3ccc(Cl)nc3)CCN2C1 [Example 56]	2.71
COC(C)(C)CNC(=O)OCCCCCCN1CC([N+](=O)[O-])=C2N(Cc3ccc(Cl)nc3)CCN2C1 [Example 57]	1.6
COCCOCCNC(=O)OCCCCN1CC([N+](=O)[O-])=C2N(Cc3ccc(Cl)nc3)CCN2C1 [Example 58]	1.2
CCOCCOCCNC(=O)OCCCCN1CC([N+](=O)[O-])=C2N(Cc3ccc(Cl)nc3)CCN2C1 [Example 59]	1.36
O=C(Nc1ccc(S(=O)(=O)C(F)(F)F)cc1)OCCCCN1CC([N+](=O)[O-])=C2N(Cc3ccc(Cl)nc3)CCN2C1 [Example 60]	2.22
O=C(Nc1ccccc1)OCCCCN1CC([N+](=O)[O-])=C2N(Cc3ccc(Cl)nc3)CCN2C1 [Example 61]	1.72
CC(=O)OCCNC(=O)OCCCCN1CC([N+](=O)[O-])=C2N(Cc3ccc(Cl)nc3)CCN2C1 [Example 62]	1.22
CC(C)(C)C(=O)OCCNC(=O)OCCCCN1CC([N+](=O)[O-])=C2N(Cc3ccc(Cl)nc3)CCN2C1 [Example 63]	1.73
O=C(Nc1ccc(Cl)c(Cl)c1)OCCCCN1CC([N+](=O)[O-])=C2N(Cc3ccc(Cl)nc3)CCN2C1 [Example 65]	1.53
CC(C)(C)CNC(=O)OCCCCN1CC([N+](=O)[O-])=C2N(Cc3ccc(Cl)nc3)CCN2C1 [Example 66]	1.75
CCCCNC(=O)OC(C)CN1CC([N+](=O)[O-])=C2N(Cc3ccc(Cl)nc3)CCN2C1 (stereo not shown) [Example 75]	1.63
CCCCNC(=O)OCCCCCN1CC([N+](=O)[O-])=C2N(Cc3cnc(Cl)s3)CCN2C1 [Example 78]	1.73
CC(C)(C)NC(=O)OCCCCCCN1CC([N+](=O)[O-])=C2N(Cc3cnc(Cl)s3)CCN2C1 [Example 79]	1.9
O=[N+]([O-])C1=C2N(Cc3cnc(Cl)s3)CCN2CN(CCCCCCO)C1 [II-15]	0.94
O=[N+]([O-])C1=C2N(Cc3cnc(Cl)s3)CCN2CN(CCCCCO)C1 [II-16]	0.71

Reference: US6054459A, “Substituted 1,2,3,4-tetrahydro-5-nitro-pyrimidines” (priority 1994, dated 2000)
